The structures appear in SMILES notation.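 Test compounds were applied to cells in 96-well plates for 48 hours at 5 doses. TGI marks complete inhibition of growth.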

This is an account of results in PubChem BioAssay (NCI).

Some test systems named below: EKVX NSCLC; U251 CNS; NCI-H23 lung; MCF7 breast; SN12C renal; A549 NSCLC; MDA-N; HL-60(TB) leukemia; COLO 205 colon; IGROV1 ovarian; BT-549 breast; SK-MEL-2 melanoma; NCI/ADR-RES ovarian; HOP-62 NSCLC; SNB-75 CNS; SK-MEL-5 melanoma; NCI-H226 lung; HS 578T breast; ACHN renal; SR leukemia.
What all share (assay): NCI anticancer screen, dose series, 48 h

Consider `CCCCOC(=O)C1CN2C=CC=NC2=NC1(C(F)(F)F)C(F)(F)F` (configuration not stated), for which the TGI in the test on EKVX NSCLC, with U251 CNS, in the test with NCI-H23 lung, in the test with MCF7 breast, in the test with SN12C renal and in the test on A549 NSCLC was more than 100 µM in each case. Besides, the TGI in the test on MDA-N, in the test on HL-60(TB) leukemia, in the test with COLO 205 colon, in the test with IGROV1 ovarian, in the test with BT-549 breast and in the test on SK-MEL-2 melanoma was more than 100 µM each time. Also, the TGI in the test on NCI/ADR-RES ovarian, with HOP-62 NSCLC, in the test on SNB-75 CNS, with SK-MEL-5 melanoma, in the test with NCI-H226 lung and in the test on HS 578T breast was more than 100 µM in each case. In the test with ACHN renal, the TGI was more than 100 µM.

Turning to `C=C(C)CC1=C(OCC)C(OC)(OCC)C1=O` (configuration not stated), the TGI in the test on EKVX NSCLC, with U251 CNS, with NCI-H23 lung, with MCF7 breast, in the test with SN12C renal and with A549 NSCLC was more than 100 µM throughout. Further, the TGI in the test on MDA-N, in the test on HL-60(TB) leukemia, in the test with COLO 205 colon, in the test with IGROV1 ovarian, in the test with BT-549 breast and with SK-MEL-2 melanoma was more than 100 µM each time. Besides, the TGI in the test with NCI/ADR-RES ovarian, in the test with HOP-62 NSCLC, in the test on SNB-75 CNS, with SK-MEL-5 melanoma, in the test with NCI-H226 lung and with HS 578T breast was more than 100 µM in each case. In the test with ACHN renal, this compound showed a TGI of more than 100 µM.

Consider `COC(=O)c1ccc(N=NN(C)COc2ccc(C#N)cc2)cc1`, for which the TGI in the test on EKVX NSCLC, with U251 CNS, in the test on NCI-H23 lung, in the test on MCF7 breast, in the test on SN12C renal and with A549 NSCLC was more than 100 µM throughout. Besides, the TGI is more than 100 µM in the test with MDA-N; 50.4 µM in the test on HL-60(TB) leukemia; more than 100 µM with COLO 205 colon; more than 100 µM with IGROV1 ovarian; more than 100 µM with BT-549 breast; more than 100 µM in the test with SK-MEL-2 melanoma. For the same compound, the TGI in the test with NCI/ADR-RES ovarian, in the test with HOP-62 NSCLC, in the test on SNB-75 CNS, in the test on SK-MEL-5 melanoma, with NCI-H226 lung and in the test with HS 578T breast was more than 100 µM in each case. The TGI with ACHN renal is more than 100 µM.

Consider `CC(C)(C)[Si](C)(C)OCCCCC1CC2(S(=O)(=O)C3=CC=C=C=C3)ON1CC2S(=O)(=O)c1ccccc1` (configuration not stated), for which the TGI in the test on EKVX NSCLC, in the test with U251 CNS, with NCI-H23 lung, in the test on MCF7 breast, in the test with SN12C renal and in the test on A549 NSCLC was more than 100 µM in each case. The TGI in the test with MDA-N, in the test with COLO 205 colon, with IGROV1 ovarian, in the test with BT-549 breast, with SK-MEL-2 melanoma and with NCI/ADR-RES ovarian was more than 100 µM in each case. In addition, the TGI in the test with HOP-62 NSCLC, in the test on SNB-75 CNS, with SK-MEL-5 melanoma, with NCI-H226 lung, with HS 578T breast and in the test on ACHN renal was more than 100 µM throughout.

Regarding `O=CN1CCN(C(=O)c2cc(Cl)cc(Cl)c2)C1=S`, the TGI in the test with EKVX NSCLC is 32.3 µM; in the test on U251 CNS it was 36 µM; in the test on NCI-H23 lung, 32.5 µM; in the test on MCF7 breast, 20.8 µM; in the test with SN12C renal, 31 µM; with A549 NSCLC it was 39.8 µM. In addition, the TGI in the test with MDA-N was 35.4 µM; in the test with HL-60(TB) leukemia, 29.7 µM; with COLO 205 colon, 33.8 µM; with IGROV1 ovarian, 34.7 µM; in the test with BT-549 breast, 31.3 µM; with SK-MEL-2 melanoma, 33 µM. Besides, the TGI in the test on NCI/ADR-RES ovarian stood at 80.7 µM; in the test on HOP-62 NSCLC, 29.7 µM; in the test on SNB-75 CNS, 27 µM; with NCI-H226 lung, 32.7 µM; with HS 578T breast, 71.4 µM; with ACHN renal, 31.7 µM.

For the compound `C=CC1ON(C)CCc2cc(OC)c(OC)cc21` (configuration not stated), the TGI in the test with EKVX NSCLC, in the test on U251 CNS, with NCI-H23 lung, in the test on MCF7 breast, in the test with SN12C renal and in the test with SR leukemia was more than 100 µM each time. Moreover, the TGI with A549 NSCLC, with MDA-N, in the test with HL-60(TB) leukemia, in the test on COLO 205 colon, in the test on IGROV1 ovarian and in the test with BT-549 breast was more than 100 µM each time. Moreover, the TGI in the test on NCI/ADR-RES ovarian, with HOP-62 NSCLC, in the test on SNB-75 CNS, with SK-MEL-5 melanoma, in the test on NCI-H226 lung and in the test on HS 578T breast was more than 100 µM each time. Also, the TGI with ACHN renal is more than 100 µM.

Take `COC1=NC(NC2OCC(O)C(O)C2O)=C(NC(C)=O)CN1C` (configuration not stated): the TGI in the test on EKVX NSCLC, in the test on NCI-H23 lung, in the test on MCF7 breast, with A549 NSCLC, in the test on MDA-N and in the test on HL-60(TB) leukemia was more than 100 µM in each case. The TGI in the test on COLO 205 colon, in the test with BT-549 breast, with SK-MEL-2 melanoma, with NCI/ADR-RES ovarian, in the test with SNB-75 CNS and in the test on SK-MEL-5 melanoma was more than 100 µM throughout. Also, the TGI in the test on NCI-H226 lung, in the test with HS 578T breast and in the test with ACHN renal was more than 100 µM throughout.
